Data published in ChEMBL document CHEMBL3045346, “In vivo evaluation of substituted 2,3-diaryl acrylophenone amide derivatives as anti-implantation agents” (2009).
Calls of active or inactive are those of the source. The rule behind the calls is not given here.

system: Rattus norvegicus; assay: Anti-implanatation activity in female Rattus norvegicus Sprague-Dawley (rat) assessed as implantation in uterine horns at 10 mg/kg, po administered on day 1 to 5 post-coitum measured on day 10 of pregnancy by laparotomy; format: functional

SMILES | Activity
CCCCCCCCCNC(=O)COc1ccc(/C=C(/C(=O)c2ccc(OC)cc2)c2ccccc2)cc1 | inactive
CCCCN(C)C(=O)COc1ccc(/C=C(/C(=O)c2ccc(OC)cc2)c2ccccc2)cc1 | 67%
CCCCCCCCNC(=O)COc1ccc(/C=C(/C(=O)c2ccc(OC)cc2)c2ccc(OC)cc2)cc1 | 100%
CCCCN(C)C(=O)COc1ccc(/C=C(/C(=O)c2ccc(OC)cc2)c2ccc(OC)cc2)cc1 | inactive
CCCCCCCCNC(=O)COc1ccc(/C=C(/C(=O)c2ccc(OC)cc2)c2ccccc2)cc1 | 33%
CCCCCCN(CC)C(=O)COc1ccc(/C=C(/C(=O)c2ccc(OC)cc2)c2ccccc2)cc1 | 33%
CCCNC(=O)COc1ccc(/C=C(/C(=O)c2ccc(OC)cc2)c2ccccc2)cc1 | inactive
CCCCNC(=O)COc1ccc(/C=C(/C(=O)c2ccc(OC)cc2)c2ccccc2)cc1 | inactive
CCCCNC(=O)COc1ccc(/C=C(/C(=O)c2ccc(OC)cc2)c2ccc(OC)cc2)cc1 | 67%
CCCCCCCCCCCCNC(=O)COc1ccc(/C=C(/C(=O)c2ccc(OC)cc2)c2ccc(OC)cc2)cc1 | inactive
CCCCCCCCCCCCNC(=O)COc1ccc(/C=C(/C(=O)c2ccc(OC)cc2)c2ccccc2)cc1 | 67%
COc1ccc2c(c1)OC(C)(C)[C@H](c1ccccc1)[C@H]2c1ccc(OCCN2CCCC2)cc1 (relative stereo) [REL-ORMELOXIFENE] | 100%
